Test results: US12543738B2 (Bayer Aktiengesellschaft, priority 2020, dated 2026)

Assays:
Fusarium culmorum = Fusarium culmorum in vitro cell test; format: cell-based; settings: 96 h, 20 ppm of active ingredient, liquid culture, 4 days incubation, read-out: efficacy (inhibition of fungal growth)
Protocol: • Solvent: DMSO • Culture medium: 14.6 g anhydrous D-glucose (VWR), 7.1 g Mycological Peptone (Oxoid), 1.4 g granulated Yeast Extract (Merck), QSP 1 liter • Inoculum: spore suspension • Fungicides were solubilized in DMSO and the solution used to prepare the required range of concentrations. The final concentration of DMSO used in the assay was ≤1%.
A spore suspension of F. culmorum was prepared and diluted to the desired spore density.
Fungicides were evaluated for their ability to inhibit spore germination and mycelium growth in liquid culture assay. The compounds were added in the desired concentration to the culture medium with spores. After 4 days incubation, fungi-toxicity of compounds was determined by spectrometric measurement of mycelium growth. Inhibition of fungal growth was determined by comparing the absorbance values in wells containing the fungicides with the absorbance in control wells without fungicides.

Septoria tritici = Septoria tritici in vitro cell test; format: cell-based; settings: Zymoseptoria tritici, 168 h; 20 ppm of active ingredient; liquid culture, 7 days incubation; read-out: efficacy (inhibition of fungal growth)
Protocol: • Solvent: DMSO • Culture medium: 1 g KH2PO4 (VWR), 1 g K2HPO4 (VWR), 0.5 g Urea (VWR), 3 g KNO3 (Prolabo), 10 g saccharose (VWR), 0.5 g MgSO4, 7H2O (Sigma), 0.07 g CaCl2, 2H2O (Prolabo), 0.2 mg MnSO4, H2O (Sigma), 0.6 mg CuSO4, 5H2O (Sigma), 7.9 mg ZnSO4, 7H2O (Sigma), 0.1 mg H3BO3 (Merck), 0.14 mg NaMoO4, 2H2O (Sigma), 2 mg thiamine (Sigma), 0.1 mg biotine (VWR), 4 mg FeSO4, 7H2O (Sigma), QSP 1 liter • Inoculum: spore suspension Fungicides were solubilized in DMSO and the solution used to prepare the required range of concentrations. […] A spore suspension of S. tritici was prepared and diluted to the desired spore density. Fungicides were evaluated for their ability to inhibit spore germination and mycelium growth in liquid culture assay. The compounds were added in the desired concentration to the culture medium with spores. […] Inhibition of fungal growth was determined by comparing the absorbance values in wells containing the fungicides with the absorbance in control wells without fungicides.

Alternaria alternata = Alternaria alternata in vitro cell test; format: cell-based; settings: 120 h, 20 ppm of active ingredient, liquid culture, 5 days incubation, read-out: efficacy (inhibition of fungal growth)
Summary of the method: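 A. alternata spores in glucose–peptone–yeast extract liquid medium were exposed to DMSO-solubilized compounds. Mycelial growth was measured spectrophotometrically after 5 days. Inhibition was calculated from absorbance relative to compound-free controls.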

[1] = system: Colletotrichum lindemuthianum; test: In vivo preventive test on Colletotrichum lindemuthianum (leaf spot on bean); settings: 168 h, 500 ppm of active ingredient, preventive spray on bean, evaluated 7 days after inoculation, read-out: efficacy
Summary of the method: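 Young bean plants were sprayed with compound dissolved in DMSO/acetone/Tween 80 and diluted in water; controls received the solvent mixture alone. Leaves were spray-inoculated with C. lindemuthianum spore suspension 24 h after treatment (preventive).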

Botrytis cinerea = test: In vivo preventive test on Botrytis cinerea (grey mould); settings: 500 ppm of active ingredient, preventive spray on gherkin or cabbage, evaluated 4 to 5 days after inoculation, read-out: efficacy
Summary of the method: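 Compounds in DMSO/acetone/Tween 80 were diluted in water and sprayed onto young gherkin or cabbage plants; controls got solvent only. After 24 h, leaves were sprayed with an aqueous Botrytis cinerea spore suspension.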

[2] = Measurement of LogP values by HPLC on reversed phase columns (EEC directive 79/831 Annex V.A8); format: physicochemical; settings: method [a]: LC-UV, acidic range, 0.1% formic acid in water and acetonitrile; compounds of formula (I-1), Table 1
Protocol: Calibration was done with straight-chain alkan2-ones (with 3 to 16 carbon atoms) with known LogP values (measurement of LogP values using retention times with linear interpolation between successive alkanones). Lambda-max-values were determined using UV-spectra from 200 nm to 400 nm and the peak values of the chromatographic signals

Alternaria brassicae = test: In vivo preventive test on Alternaria brassicae (leaf spot on radish or cabbage); settings: 144 h, 500 ppm of active ingredient, preventive spray on radish or cabbage, evaluated 6 days after inoculation, read-out: efficacy
Summary of the method: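 Young radish or cabbage plants sprayed with compound dissolved in DMSO/acetone/Tween 80 and diluted in water; controls received solvent only. Leaves inoculated 24 h later by spraying an aqueous Alternaria brassicae spore suspension.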

Pyrenophora teres = test: In vivo preventive test on Pyrenophora teres (net blotch on barley); settings: 240 h, 500 ppm of active ingredient, preventive spray on barley, evaluated 10 days after inoculation, read-out: efficacy
Summary of the method: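 Young barley plants sprayed preventively with compound dissolved in DMSO/acetone/Tween 80 and diluted in water; controls received solvent mixture only. Leaves inoculated 24 h later by spraying an aqueous P. teres spore suspension.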

Sphaerotheca fuliginea = test: In vivo preventive test on Sphaerotheca fuliginea (powdery mildew on cucurbits); settings: Podosphaera fuliginea, 192 h; 500 ppm of active ingredient; preventive spray on gherkin; evaluated 8 days after inoculation; read-out: efficacy
Summary of the method: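 Preventive spray on young gherkin plants with compound in DMSO/acetone/Tween 80 diluted in water; controls received solvent only. Leaves inoculated 24 h later by spraying an aqueous S. fuliginea spore suspension.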

Pyricularia Oryzae = test: microbe, parasite or virus in culture; format: cell-based; settings: 120 h, read-out: efficacy (inhibition of fungal growth)
[3] = system: Colletotrichum lindemuthianum; test: Colletotrichum lindemuthianum in vitro cell test; format: cell-based; settings: 144 h, 20 ppm of active ingredient, liquid culture, 6 days incubation, read-out: efficacy (inhibition of fungal growth)
Protocol: • Solvent: DMSO • Culture medium: 14.6 g anhydrous D-glucose (VWR), 7.1 g Mycological Peptone (Oxoid), 1.4 g granulated Yeast Extract (Merck), QSP 1 liter • Inoculum: spores suspension Fungicides were solubilized in DMSO and the solution used to prepare the required range of concentrations. […] A spore suspension of C. lindemuthianum was prepared and diluted to the desired spore density. Fungicides were evaluated for their ability to inhibit spores germination and mycelium growth in liquid culture assay. The compounds were added in the desired concentration to the culture medium with spores. After 6 days incubation, fungi-toxicity of compounds was determined by spectrometric measurement of mycelium growth. Inhibition of fungal growth was determined by comparing the absorbance values in wells containing the fungicides with the absorbance in control wells without fungicides.

Cc1ccc(CC2CON=C(c3cc(C)nnc3Oc3cccc(Cl)c3)N2)c(Cl)c1 (racemic) [Compound I-004, (5RS)-5-(2-chloro-4-methylbenzyl)-3-[3-(3-chlorophenoxy)-6-methylpyridazin-4-yl]-5,6-dihydro-4H-1,2,4-oxadiazine]
3.81: chromatographic logP [2]
90 to 100%: inhibition at 20 ppm (Fusarium culmorum) | inhibition at 20 ppm (Septoria tritici) | inhibition at 20 ppm (Alternaria alternata) | pest or weed control at 500 ppm [1] | pest or weed control at 500 ppm (Botrytis cinerea) | pest or weed control at 500 ppm (Alternaria brassicae) | pest or weed control at 500 ppm (Pyrenophora teres) | pest or weed control at 500 ppm (Sphaerotheca fuliginea) | inhibition at 20 ppm (Pyricularia Oryzae) | inhibition at 20 ppm [3]

Cc1cccc(Oc2nnc(Cl)cc2C2=NOCC(Cc3ccc(Cl)cc3Cl)N2)c1F (racemic) [Compound I-005, (5RS)-3-[6-chloro-3-(2-fluoro-3-methylphenoxy)pyridazin-4-yl]-5-(2,4-dichlorobenzyl)-5,6-dihydro-4H-1,2,4-oxadiazine]
90 to 100%: inhibition at 20 ppm (Fusarium culmorum) | inhibition at 20 ppm (Septoria tritici) | inhibition at 20 ppm (Alternaria alternata) | pest or weed control at 500 ppm [1] | pest or weed control at 500 ppm (Botrytis cinerea) | pest or weed control at 500 ppm (Alternaria brassicae) | pest or weed control at 500 ppm (Pyrenophora teres) | pest or weed control at 500 ppm (Sphaerotheca fuliginea) | inhibition at 20 ppm (Pyricularia Oryzae) | inhibition at 20 ppm [3]
4.47: chromatographic logP [2]

Cc1ccc(CC2CON=C(c3cc(C)nnc3Oc3cccc(Cl)c3F)N2)c(Br)c1 (racemic) [Compound I-006, (5RS)-5-(2-bromo-4-methylbenzyl)-3-[3-(3-chloro-2-fluorophenoxy)-6-methylpyridazin-4-yl]-5,6-dihydro-4H-1,2,4-oxadiazine]
90 to 100%: inhibition at 20 ppm (Fusarium culmorum) | inhibition at 20 ppm (Septoria tritici) | inhibition at 20 ppm (Alternaria alternata) | pest or weed control at 500 ppm [1] | pest or weed control at 500 ppm (Botrytis cinerea) | pest or weed control at 500 ppm (Alternaria brassicae) | pest or weed control at 500 ppm (Pyrenophora teres) | pest or weed control at 500 ppm (Sphaerotheca fuliginea) | inhibition at 20 ppm (Pyricularia Oryzae) | inhibition at 20 ppm [3]
4.01: chromatographic logP [2]

O=CN1C(c2cc(Cl)nnc2Oc2cccc(C3CC3)c2F)=NOCC1Cc1ccc(Cl)cc1Cl (racemic) [Compound I-025, (5RS)-3-[6-chloro-3-(3-cyclopropyl-2-fluorophenoxy)pyridazin-4-yl]-5-(2,4-dichlorobenzyl)-5,6-dihydro-4H-1,2,4-oxadiazine-4-carbaldehyde]
4.93: chromatographic logP [2]
90 to 100%: inhibition at 20 ppm (Fusarium culmorum) | inhibition at 20 ppm (Septoria tritici) | inhibition at 20 ppm (Alternaria alternata) | pest or weed control at 500 ppm [1] | pest or weed control at 500 ppm (Botrytis cinerea) | pest or weed control at 500 ppm (Alternaria brassicae) | pest or weed control at 500 ppm (Pyrenophora teres) | pest or weed control at 500 ppm (Sphaerotheca fuliginea) | inhibition at 20 ppm (Pyricularia Oryzae) | inhibition at 20 ppm [3]

Cc1ccc(CC2CON=C(c3cc(C)nnc3Oc3cccc(Cl)c3)N2)c(Br)c1 (racemic) [Compound I-001, (5RS)-5-(2-bromo-4-methylbenzyl)-3-[3-(3-chlorophenoxy)-6-methylpyridazin-4-yl]-5,6-dihydro-4H-1,2,4-oxadiazine]
90 to 100%: inhibition at 20 ppm (Fusarium culmorum) | inhibition at 20 ppm (Septoria tritici) | inhibition at 20 ppm (Alternaria alternata) | pest or weed control at 500 ppm [1] | pest or weed control at 500 ppm (Botrytis cinerea) | pest or weed control at 500 ppm (Alternaria brassicae) | pest or weed control at 500 ppm (Pyrenophora teres) | pest or weed control at 500 ppm (Sphaerotheca fuliginea) | inhibition at 20 ppm (Pyricularia Oryzae) | inhibition at 20 ppm [3]
3.94: chromatographic logP [2]

CCc1cccc(Oc2nnc(C)cc2C2=NOCC(Cc3ccc(C)cc3C)N2)c1F (racemic) [Compound I-014, (5RS)-5-(2,4-dimethylbenzyl)-3-[3-(3-ethyl-2-fluorophenoxy)-6-methylpyridazin-4-yl]-5,6-dihydro-4H-1,2,4-oxadiazine]
90 to 100%: inhibition at 20 ppm (Fusarium culmorum) | inhibition at 20 ppm (Septoria tritici) | inhibition at 20 ppm (Alternaria alternata) | pest or weed control at 500 ppm [1] | pest or weed control at 500 ppm (Botrytis cinerea) | pest or weed control at 500 ppm (Alternaria brassicae) | pest or weed control at 500 ppm (Pyrenophora teres) | pest or weed control at 500 ppm (Sphaerotheca fuliginea) | inhibition at 20 ppm (Pyricularia Oryzae) | inhibition at 20 ppm [3]
4.12: chromatographic logP [2]
